Measurements: patent US8618055B2, “Prominin-1 peptide fragments and uses thereof” (Children's Medical Center Corporation, priority 2008, dated 2013)
“Also recorded” adds a separate entry of the source.

How the values were obtained:
endothelial cells [1] = assay: I125-VEGF binding to endothelial cells in presence of peptide; type: cell-based; conditions: for VEGF binding to cells (endothelial cells) with #237 fragments: 100 μg/ml of each peptide
Experimental: (§1) 10000 cells were incubated in binding buffer containing 20 mM Hepes, 0.1% BSA and I125-VEGF (12 ng/ml) for 3 h on ice.
(§2) In order to characterize the effect of the peptides on VEGF binding to endothelial and melanoma cells, the cells were incubated with various peptides (720 μg/ml) in the presence of […] (12 ng/ml) (FIG. 3). Peptide #237 increased VEGF binding to endothelial as well to melanoma cells. 10000 cells were incubated in binding buffer containing 20 mM Hepes, 0.1% BSA and I^125-VEGF (12 ng/ml) for 3 h on ice. Following 3 washings, the radioactive levels were determined by gamma counter. An increase of more than 25 times in I^125-VEGF binding was observed when peptide #237 was added to both kinds of cells. All other peptides had no effect on VEGF binding.
(§3) To characterize which are the essential amino acids within the #237 peptide that are crucial to accelerate VEGF binding to the cells, three shorter peptides were designed as presented at Table 2. The cells were treated with the smaller peptides in the same way as described in FIG. 3. 10000 cells were incubated in binding buffer containing 20 mM Hepes, 0.1% BSA, I^125-VEGF (12 ng/ml) and 100 μg/ml of each peptide, for 3 h on ice. Following 3 washings with binding buffer, the radioactive levels were determined using a gamma counter.
The inventors also investigated which amino acid residues in peptide #237 are important for the various angiogenic and VEGF related binding activity described herein. To achieve this, the inventors singly changed each of the 12 amino acid residues in peptide #237 to alanine and performed experiments examining the effect of the alanine substitution at various positions on endothelial cell binding to VEGF. A total of 12 alanine substituted peptides were made and tested: Ala-1, Ala-2, Ala-3, Ala-4, Ala-5, Ala-6, Ala-7, Ala-8, Ala-9, Ala-10, Ala-11, Ala-12, (SEQ. ID. NOS. 39-50) wherein the number indicate the position where the alanine substitution occurred. (Note that the amino acid at position 12 of peptide #237 was changed to glycine in Ala-12). In addition, a “flip #237” peptide having the sequence AAVVTTTQRQVRD (SEQ. ID. NO. 53) was also made and studied.

ischemic hind limb = assay: Mouse hind limb ischemia model (femoral artery ligation, laser Doppler); type: in vivo
Experimental: Mice were ligated in one of their femoral arteries (the right limb) to simulate hind limb ischemia. The blood flow in mice was analyzed by machine for each mouse before and immediately after the procedure to evaluate if the femoral was ligated properly. Blood flow was compared with the non-operated leg by a laser Doppler imager. […] The ischemic limb is seen as the limb on left side in the laser Doppler images.
In FIG. 12, the white areas indicate normal perfusion with normal blood circulation and black areas indicate no blood flow in the ischemic left hind limb. […] Dark shaded areas within the white areas located at the distal ends of the limbs indicate extremely good blood flow.
The blood flow of the ischemic hind limb is expressed as the ratio between the perfusion of the ischemic limb and the uninjured limb in FIG. 13.

mouse corneas = assay: Corneal micropocket assay with VEGF pellet; type: in vivo; conditions: pellet 160 ng VEGF 165 + 1.3 ug #237 vs VEGF pellet alone, 5 days
Experimental: Vigorous vessel in-growth from the limbus at 5 days was recorded as a positive response.
In order to evaluate the modulating effect of peptide #237 on the angiogenesis process, a corneal micropocket assay was performed. Two kinds of pellets were created, both containing 160 ng carrier-free recombinant human VEGF 165 (R&D Systems, Minneapolis, Minn.), one of which contains 1.3 ug of #237 peptide. The pellets were implanted into micropockets created in the cornea of two groups of anesthetized mice (n=4). Through the use of standardized slow-release pellets, a predictable angiogenic response is generated over the course of 5 days and then quantified. The area of neovascularization was calculated as vessel area, which is calculated as the product of vessel length measured from the limbus and clock hours around the cornea, using the following equation: vessel area (mm^2)=[clock hours×vessel length (mm)×0.2 mm]. […] The in vivo experiment confirms that the peptide stimulates cell proliferation, and is therefore a good candidate to induce angiogenesis.

endothelial cells [2] = assay: Matrigel assay, endothelial cell migration in vivo (FACS); set-up: species or system C57bl mice; conditions: for endothelial cells among matrigel liberated cells (FACS, CD31): Matrigel s.c. with 500 ng VEGF, with or without 180 μg #237, day 6
Experimental: On day 6, animals were sacrificed and fluorescence-activated cell sorting (FACS) analysis was used for determination of the matrigel liberated cells. In order to distinguish the endothelial cells from hematopoietic cells, the cells were incubated with two antibodies CD31-PE and CD45-APC which are specific to endothelial cells and hematopoietic cells respectively.

[3] = tested on: calvaria critical size defect; assay: Calvaria critical size defect bone repair experiment; type: in vivo, rat; conditions: local treatment 28 days, 100 μg/mice/5 days, 5-mm defect, vs saline
Experimental: In this study, the inventors examined the ability of peptide #237 to enhance repair of a critical size defect in a rat calvaria critical size defect experiment. Critical size calvarial defects (5-mm diameter) were created in rats and locally treated with saline (control) or peptide #237 for 28 days (100 μg/mice/5 days). After 28 days, analysis of bone regeneration was determined by soft x-ray.

nude mouse ear wound = assay: Ear wound neovascularization model; type: in vivo; conditions: matrigel containing #237 (180 μg) daily for 5 days, 2.25 mm punch, vs plain matrigel
Experimental: Microvascular in-growth into damaged tissue is an essential component of the normal healing process. In fact, wound therapy is often aimed at promoting neovascularization. The model consists of wounding the dorsal aspect of the ear of a nude mouse. A circular punch was used to create a standardized wound on a nude mouse ear. Constant diameter of wound is given by the size of the punch (2.25 mm), and the ears were treated daily with plain matrigel (FIG. 8A) or matrigel containing peptide #237 (180 μg) (FIG. 8B) for 5 days. […] In order to evaluate the wound neovascularization, the mice were inoculated by dextran-FITC which specifically labeled the endothelial cells, immediately after anesthetizing them.

[4] = tested on: Primary cortical neuronal cells; assay: Neurite outgrowth in primary cortical neuronal cells; type: cell-based; conditions: 0.25 μg/μL, 2 days, compared to scrambled peptide
Experimental: Primary cortical neuronal cells (2×10^4 per well) were plated on poly-L-lysine coated 24 well dishes and treated with either scrambled #237 or peptide #237 (0.25 μg/μL). Cells were then cultured for 2 days.
Neurite outgrowth was evaluated by counting the number of neurites extended from the same number of cells and at the same area.
Peptide 237 increases neurite outgrowth in terminally differentiated cortical neurons. The number of neurite arborizations in these postmitotic cells was estimated using light microscopy by manually counting the number of projections in a given field containing approximately equivalent number of cells. Quantification of neurite outgrowth was also performed by fluorescent staining with a neuron-specific marker (i.e., neurofilament) followed by automated, computational analysis (data not shown).

mouse ear wound = assay: Mouse ear punch wound healing model, 14 days; type: in vivo; conditions: MATRIGEL containing #237 daily, day 14, vs MATRIGEL
Experimental: In addition to increasing angiogenesis, peptide #237 also accelerates wound healing. In order to evaluate the effect of the peptide on wound healing, ears of five mice were wounded using a circular punch, which creates a wound measuring 1 mm. The ears of wounded mice were treated daily with either MATRIGEL or MATRIGEL containing #237 peptide for 14 days.

B16-F10 melanoma cells = assay: I125-VEGF binding to melanoma cells in presence of peptide; type: cell-based; conditions: I125-VEGF 12 ng/ml, 3 h on ice
Experimental: as §1, §2, §3

## Ala-5: peptide #237 with the arginine at position 5 replaced by alanine (DRVQAQTTTVVA)
Endothelial cells [1]; compared to the original #237
  ability of endothelial cells to bind VEGF, alanine substituted #237 peptides: increased by more than twice

## DRVQRQ [#237A]
Endothelial cells [1]; I125-VEGF 12 ng/ml, 3 h on ice
  VEGF binding to cells (endothelial cells) with #237 fragments: abolished; also recorded: not crucial to enhance VEGF binding

## DRVQRQTTTVVA [Peptide #237]
Ischemic hind limb; intraperitoneal immediately following femoral artery occlusion, within three to six days
  limb perfusion: significantly improves limb perfusion
Ischemic hind limb; ratio ischemic/uninjured limb, on average
  increase perfusion compared to saline-treated mice: 30-40%
Mouse corneas
  increase in vessel density versus control pellet: 53%
Endothelial cells [2]; 180 ug #237 added to VEGF in Matrigel, day 6
  endothelial cells relative to VEGF alone: six times more
Endothelial cells [2]
  endothelial cells among matrigel liberated cells (FACS, CD31): 0.42%
[3]
  bone regeneration (soft x-ray): completely sealed and covered the aperture
Endothelial cells [1]; peptide 720 μg/ml, I125-VEGF 12 ng/ml, 10000 cells, 3 h on ice
  increase in I125-VEGF binding to endothelial cells: more than 25 times
Nude mouse ear wound
  neovascularization around the ear wound site: significantly increased
[4]
  neurite outgrowth: dramatically induces branched and longer neurites
Mouse ear wound
  wound area: significantly smaller
B16-F10 melanoma cells; peptide 720 μg/ml, 10000 cells
  increase in I125-VEGF binding to melanoma cells: more than 25 times

## TTTVVA [#237B]
Endothelial cells [1]; I125-VEGF 12 ng/ml, 3 h on ice
  VEGF binding to cells (endothelial cells) with #237 fragments: partially increases; also recorded: partial increase
B16-F10 melanoma cells; 100 μg/ml of each peptide
  VEGF binding to melanoma cells with #237 fragments: better binding

## VEGF [reference compound]
Endothelial cells [2]
  endothelial cells among matrigel liberated cells (FACS, CD31): 0.07%

## VQRQTTTV [#237C]
Endothelial cells [1]; I125-VEGF 12 ng/ml, 3 h on ice
  VEGF binding to cells (endothelial cells) with #237 fragments: abolished; also recorded: essentially eliminated
